Source: ChEMBL document CHEMBL1126439, “Synthesis, biochemical activity and behavioral effects of a series of 1,4,5,6-tetrahydropyrimidines as novel ligands for M1 receptors” (Bioorg Med Chem Lett, 1992)

Legend:
Rattus norvegicus [1] = species on record: Rattus norvegicus; experiment: Ability to stimulate PI (phospho inositol) metabolism in rat cerebral cortex at 100 uM concentration; format: functional
Rattus norvegicus [2] = species on record: Rattus norvegicus; experiment: Compound was evaluated for its ability to stimulate PI (phospho inositol) metabolism in the rat hippocampal slices, the 50% effective concentration was reported; format: functional; conditions: Hippocampus
Rattus norvegicus [3] = species on record: Rattus norvegicus; experiment: Compound was evaluated for its ability to stimulate PI (phospho inositol) metabolism in the rat hippocampal slices; format: functional, Hippocampus
Rattus norvegicus [4] = species on record: Rattus norvegicus; experiment: cells; conditions: Hippocampus
Description: Inhibition of PI (phospho inositol) response in rat hippocampus by the selective antagonist AF-DX 116 in the presence of 50 uM concentration of the compound

Rattus norvegicus [5] = species on record: Rattus norvegicus; experiment: cells; conditions: Hippocampus; remark: listed apart in the source
Description: Inhibition of PI (phospho inositol) response in rat hippocampus by the selective antagonist pirenzepine in the presence of 50 uM concentration of the compound

Rattus norvegicus [6] = species on record: Rattus norvegicus; experiment: tissue or blood; conditions: Hippocampus
Description: Effective concentration to stimulate PI (phospho inositol) metabolism in the rat hippocampal slices

[7] = biological target: Muscarinic acetylcholine receptor
Description: Inhibition of [3H](R)-QNB binding to muscarinic receptor in rat brain membranes

Structure (SMILES) | Activity (Rattus norvegicus [1]) | Stimulation (Rattus norvegicus [3]) | also measured
COC(=O)C1CN=CNC1.Cl (centres undefined) | 130 | 240% | EC50 (Rattus norvegicus [2]): 55000 nM; IC50 (Rattus norvegicus [4]): 750 nM; IC50 (Rattus norvegicus [5]): 44 nM
CCOC(=O)C1CN=CNC1.Cl (centres undefined) | 150 | – | –
C#CCOC(=O)C1CN=CNC1.Cl (centres undefined) | 230 | – | –
CC(=O)OC1CN2CCC1CC2 (centres undefined) [ACECLIDINE] | – | 300% | IC50 (Rattus norvegicus [4]): 280 nM; IC50 (Rattus norvegicus [5]): 120 nM; EC50 (Rattus norvegicus [6]): 21000 nM
Cl.O=C(OCc1ccccc1)C1CN=CNC1 (centres undefined) | 3.5 | – | IC50 [7]: 2600 nM
CC(C)OC(=O)C1CN=CNC1.Cl (centres undefined) | 7.2 | – | –
C[N+](C)(C)CCOC(N)=O.[Cl-] [CARBACHOL] | 580 | – | –
CCCOC(=O)C1CN=CNC1.Cl (centres undefined) | 7.1 | – | –
CC(=O)OC1CN=CNC1.Cl (centres undefined) | 45 | 70% | IC50 [7]: 32000 nM
